Values quoted from earlier work in US3995028A, “Antibiotic OS-3256-B” (The Kitasato Institute, priority 1975, dated 1976).

System: animal tumors such as leukemia L-1210, Sarcoma-180 and Hela cells

In the case of `C[C@H](N)C(=O)N[C@@H](CCC(=O)C=[N+]=[N-])C(=O)N[C@@H](CCC(=O)C=[N+]=[N-])C(=O)O` [Alazopeptin, L-alanyl-(6-diazo-5-oxo)-L-norleucyl-(6-diazo-5-oxo)-L-norleucine], the “inhibitory activity against animal tumors” value is given as “inhibitory activity against animal tumors”.
